Results taken from ChEMBL document CHEMBL5223073, “Andrographolide suppresses cisplatin-induced endothelial hyperpermeability through activation of PI3K/Akt and eNOS -derived nitric oxide” (Bioorg Med Chem, 2020).
Calls of active or inactive are those of the source. The rule behind the calls is not given here.

Legend:
[1] = biological target: Transcription factor p65 (Homo sapiens) (UniProt Q04206); assay: Inhibition of cisplatin-induced phosphorylation of p65 subunit at Ser536 residue in HUVEC cells at 30 uM preincubated with PI3K inhibitor, wortmannin followed by compound addition and further incubated for 1 hr by Western blot analysis; format: cell-based
Sequence of Transcription factor p65 (Homo sapiens) (Q04206 whole entry): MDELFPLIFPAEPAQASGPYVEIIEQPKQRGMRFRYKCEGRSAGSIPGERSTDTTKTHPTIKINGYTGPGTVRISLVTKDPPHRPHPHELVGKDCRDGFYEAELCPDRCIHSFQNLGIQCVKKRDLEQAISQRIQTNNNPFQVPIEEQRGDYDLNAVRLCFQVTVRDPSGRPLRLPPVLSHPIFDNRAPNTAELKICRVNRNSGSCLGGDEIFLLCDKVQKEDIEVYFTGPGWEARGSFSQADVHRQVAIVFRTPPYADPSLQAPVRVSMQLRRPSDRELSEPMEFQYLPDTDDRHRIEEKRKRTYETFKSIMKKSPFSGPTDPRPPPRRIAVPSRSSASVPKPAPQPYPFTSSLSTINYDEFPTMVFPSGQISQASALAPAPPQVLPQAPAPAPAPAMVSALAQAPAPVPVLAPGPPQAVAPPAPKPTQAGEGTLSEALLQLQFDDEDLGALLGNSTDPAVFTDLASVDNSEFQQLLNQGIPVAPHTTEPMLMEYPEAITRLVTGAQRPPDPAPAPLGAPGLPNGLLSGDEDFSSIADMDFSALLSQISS

[2] = biological target: T1, Nitric oxide synthase 3 (Homo sapiens) (UniProt P29474); assay: Activation of eNOS activity in cisplatin-treated HUVEC cells assessed as increase in eNOS phosphorylation at Ser1177 residue at 30 uM preincubated with eNOS inhibitor, N(G)-nitro-L-arginine methyl ester followed by compound addition measured after 5 to 240 mins by Western blot analysis; format: cell-based; conditions: time 5-240 min
T1 sequence (whole entry): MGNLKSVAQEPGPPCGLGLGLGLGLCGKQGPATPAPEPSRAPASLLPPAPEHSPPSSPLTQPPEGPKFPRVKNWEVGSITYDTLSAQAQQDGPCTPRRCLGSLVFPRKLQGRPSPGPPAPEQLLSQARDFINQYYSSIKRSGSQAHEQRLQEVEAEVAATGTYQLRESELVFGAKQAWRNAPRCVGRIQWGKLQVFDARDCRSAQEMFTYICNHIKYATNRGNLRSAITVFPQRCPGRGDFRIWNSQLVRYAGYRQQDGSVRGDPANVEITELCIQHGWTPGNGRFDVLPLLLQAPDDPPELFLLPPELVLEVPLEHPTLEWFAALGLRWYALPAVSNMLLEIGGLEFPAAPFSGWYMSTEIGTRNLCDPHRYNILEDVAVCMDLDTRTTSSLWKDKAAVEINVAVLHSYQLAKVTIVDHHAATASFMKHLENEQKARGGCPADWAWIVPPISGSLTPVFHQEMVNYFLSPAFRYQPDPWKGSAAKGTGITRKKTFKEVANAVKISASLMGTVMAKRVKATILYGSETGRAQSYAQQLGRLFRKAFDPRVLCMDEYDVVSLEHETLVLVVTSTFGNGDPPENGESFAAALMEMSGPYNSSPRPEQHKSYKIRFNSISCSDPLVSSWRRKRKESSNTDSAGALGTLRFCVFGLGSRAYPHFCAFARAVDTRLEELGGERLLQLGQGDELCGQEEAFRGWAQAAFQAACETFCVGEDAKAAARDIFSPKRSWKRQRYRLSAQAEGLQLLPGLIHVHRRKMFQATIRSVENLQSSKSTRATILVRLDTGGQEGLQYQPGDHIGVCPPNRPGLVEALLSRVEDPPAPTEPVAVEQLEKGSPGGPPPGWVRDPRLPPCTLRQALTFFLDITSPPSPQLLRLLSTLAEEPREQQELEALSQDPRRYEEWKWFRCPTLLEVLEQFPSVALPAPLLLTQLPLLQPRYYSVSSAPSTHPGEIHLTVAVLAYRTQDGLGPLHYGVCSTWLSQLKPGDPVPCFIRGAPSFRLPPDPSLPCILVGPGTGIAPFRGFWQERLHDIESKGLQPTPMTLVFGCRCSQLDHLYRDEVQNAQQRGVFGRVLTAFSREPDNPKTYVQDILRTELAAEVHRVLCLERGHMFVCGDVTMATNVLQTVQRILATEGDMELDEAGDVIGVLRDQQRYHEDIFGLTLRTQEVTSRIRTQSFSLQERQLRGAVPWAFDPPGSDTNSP

HUVEC [3] = assay: Cytotoxicity against HUVEC cells assessed as reduction in cell viability at <=30 uM measured after 24 hrs by MTT assay; format: toxicity, cell-based; conditions: human
HUVEC [4] = assay: Downregulation of cisplatin-induced ICAM1 protein expression in HUVEC cells at 30 uM incubated for 1 hr by Western blot analysis; format: functional, cell-based; conditions: Homo sapiens
[5] = biological target: T2, NF-kappa-B inhibitor alpha (Homo sapiens) (UniProt P25963); assay: Inhibition of cisplatin-induced phosphorylation of IkappaBalpha at Ser32/36 residue in HUVEC cells at 30 uM preincubated with eNOS inhibitor, N(G)-nitro-L-arginine methyl ester followed by compound addition and further incubated for 1 hr by Western blot analysis; format: cell-based
T2 sequence (whole entry): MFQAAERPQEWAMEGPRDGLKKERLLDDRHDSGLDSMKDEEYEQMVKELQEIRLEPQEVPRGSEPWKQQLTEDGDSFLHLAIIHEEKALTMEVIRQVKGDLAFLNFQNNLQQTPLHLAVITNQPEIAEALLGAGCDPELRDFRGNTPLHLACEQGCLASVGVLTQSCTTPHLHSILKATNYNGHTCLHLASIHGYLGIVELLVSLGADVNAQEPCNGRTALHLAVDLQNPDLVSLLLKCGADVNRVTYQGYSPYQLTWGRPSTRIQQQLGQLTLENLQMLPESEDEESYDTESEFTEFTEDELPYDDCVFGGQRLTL

HUVEC [6] = assay: Activation of AKT in cisplatin-treated HUVEC cells assessed as increase in AKT phosphorylation at 30 uM pretreated with PI3K inhibitor, wortmannin followed by compound addition and measured after 240 mins by Western blot analysis; format: cell-based; conditions: Homo sapiens
HUVEC [7] = assay: Inhibition of cisplatin-induced PKCalpha translocation in HUVEC cells assessed as increase in PKCalpha accumulation in cytosol at 30 uM incubated for 15 mins in presence of cisplatin by Western blot analysis; format: functional, subcellular; conditions: Homo sapiens
[8] = biological target: Transcription factor p65 (Homo sapiens) (UniProt Q04206); assay: Inhibition of cisplatin-induced phosphorylation of p65 subunit at Ser536 residue in HUVEC cells at 30 uM incubated for 1 hr by Western blot analysis; format: cell-based
U-937 [9] = assay: (§1) Inhibition of cisplatin-induced ICAM1 dependent HUVEC cells adhesion to human U-937 cells at 10 to 30 uM preincubated with HUVEC cells for 4.5 hrs in presence of cisplatin and PI3K inhibitor, wortmannin followed by U-937 cell suspension addition and measured after 1 hr by BCECF fluorescent probe based assay; format: functional; conditions: dose 10-30 µM, time 5.5 hrs
[10] = biological target: T2, NF-kappa-B inhibitor alpha (Homo sapiens); assay: Inhibition of cisplatin-induced phosphorylation of IkappaBalpha at Ser32/36 residue in HUVEC cells at 30 uM incubated for 1 hr by Western blot analysis; format: cell-based
[11] = biological target: T1, Nitric oxide synthase 3 (Homo sapiens); assay: Activation of eNOS activity in cisplatin-treated HUVEC cells assessed as increase in intracellular cGMP level incubated for 15 mins by radioimmunoassay; format: cell-based; conditions: filed as activator, dose 10-30 µM
HUVEC [12] = assay: Induction of NO production in cisplatin-treated HUVEC cells assessed as increase in fluorescence signal at 30 uM preincubated with PI3K inhibitor, wortmannin for 3 hrs followed by compound addition and measured immediately by DAF-FM dye based analysis; format: functional, cell-based; conditions: Homo sapiens
HUVEC [13] = assay: Inhibition of cisplatin-induced store operated Ca2+ release in HUVEC cells at 30 uM preincubated with compound in presence of PI3K inhibitor, wortmannin followed by cisplatin stimulation by Fura-2 AM staining based calcium influx assay; format: functional, cell-based; conditions: Homo sapiens
U-937 [14] = assay: as §1, with “eNOS” for “PI3K”, “N(G)-nitro-L-arginine methyl ester” for “wortmannin”; format: functional; conditions: dose 10-30 µM, time 5.5 hrs
HUVEC [15] = assay: Improvement in cisplatin-induced endothelial monolayer integrity in HUVEC cells assessed as increase in transendothelial electric resistance at 30 uM preincubated with compound in presence of PI3K inhibitor, wortmannin followed by cisplatin stimulation and measured after 45 mins; format: functional, cell-based; conditions: Homo sapiens
HUVEC [16] = assay: Improvement in cisplatin-induced endothelial monolayer integrity in HUVEC cells assessed as increase in transendothelial electric resistance at 30 uM preincubated with compound followed by cisplatin stimulation and measured after 45 mins; format: functional, cell-based; conditions: Homo sapiens

C=C1CC[C@@H]2[C@](C)(CO)[C@H](O)CC[C@@]2(C)[C@@H]1C/C=C1/C(=O)OC[C@H]1O [ANDROGRAPHOLIDE]
inhibition [1]: inactive | Activity [2]: inactive | Activity (HUVEC [3]): Non-Toxic | Activity (HUVEC [4]): Active | inhibition [5]: inactive | Activity (HUVEC [6]): inactive | inhibition (HUVEC [7]): Active | inhibition [8]: Active | inhibition (U-937 [9]): inactive | inhibition [10]: Active | Activity [11]: Dose-Dependent Effect | Activity (HUVEC [12]): inactive | inhibition (HUVEC [13]): inactive | inhibition (U-937 [14]): inactive | Activity (HUVEC [15]): inactive | Activity (HUVEC [16]): Active
